These results are taken from US20070092551A1, “Therapeutic agent” (TAKARA BIO INC., priority 2003, published 2007).

Assay [1] concerns mature adipocytes which were induced to be differentiated by xanthoangelol. The experiment in a line: Glucose uptake into adipocytes induced to be differentiated by xanthoangelol. The format is cell-based. The settings on record: stimulation with 4-hydroxyderricin 20 μM; adipocytes differentiated with xanthoangelol 10 μM. How it is done: Adipocytes which were induced to be differentiated by xanthoangelol were obtained, and thereafter it was confirmed on whether the glucose uptake into the adipocytes is enhanced by stimulation with insulin or 4-hydroxyderricin.
Specifically, as a sample, there was set a group with addition of a dimethyl sulfoxide solution of xanthoangelol having a final concentration of 10 μM. Thereafter, the medium and the sample were exchanged in the same manner as in the method described in Example 82 except that 3-isobutyl-1-methylxanthine having a final concentration of 0.5 mM was added concurrently with the addition of dexamethasone, to give mature adipocytes which were induced to be differentiated by xanthoangelol.
Next, the amount of 2-deoxyglucose uptake into the mature adipocytes during the stimulation with insulin or 4-hydroxyderricin in the resulting mature adipocytes was determined in the same manner as in the method described in Example 83.
Specifically, there were set the group without the addition and the group with addition of insulin having a final concentration of 1 μg/mL or 4-hydroxyderricin having a final concentration of 20 μM. Thereafter, the amount of 2-deoxy-[1,2-^3H(N)]-glucose uptake into the adipocytes was determined in the same manner.

The test system of assay [2] is type II diabetes model mouse. Kind of assay: Glucose tolerance test, 4-hydroxyderricin and combined use with xanthoangelol. The format is in vivo. The settings on record: male KK-Ay mice. The method, then:
Amelioration effects for glucose tolerance by 4-hydroxyderricin and combined use of 4-hydroxyderricin and xanthoangelol were examined using a type II diabetes model mouse. Experiments were carried out with five male 12-week old KK-Ay mice (CLEA Japan, Inc.) per group. 4-Hydroxyderricin which was previously suspended or dissolved in an olive oil so as to have a concentration of 4% (w/v) was forcibly orally administered to a group to be administered with 4-hydroxyderricin at 200 mg/kg once a day for consecutive days. 4-Hydroxyderricin and xanthoangelol which were each suspended or dissolved in an olive oil to 4% (w/v) were mixed in equal volumes, and the mixture was forcibly orally administered to a group to be administered with a combined use of 4-hydroxyderricin and xanthoangelol once a day for consecutive days so that each administration concentration became 100 mg/kg. An olive oil was administered to the mice in the control group at 5 mL/kg in the same manner. The mice were fasted over one night spanning from the fifteenth day to the sixteenth day from administration, and a glucose tolerance test was carried out. Four hours after the administration of the sample, a 10% glucose solution was intraperitoneally administered at 1 g/kg. Thirty minutes before glucose tolerance and 30 minutes after the tolerance, blood was collected from veins of the tail, and the blood glucose level was determined with a simple blood glucose meter, ACCU-CHEK Compact (Roche Diagnostic K.K.).

The subject of assay [3] is insulin-resistant mature adipocytes. Kind of assay: Enhancing action on glucose uptake into insulin-resistant (TNF-α treated) mature adipocytes. The format is cell-based. The settings on record: 4-hydroxyderricin 30 μM; mature adipocytes treated with mouse-derived TNF-α 10 or 20 ng/mL. The method, then: It is said that tumor necrosis factor a (TNF-α) is deeply involved in insulin resistance, and it has been known that a signal from an insulin receptor is inhibited by treating mature adipocytes with TNF-α, so that a reaction of glucose uptake is inhibited by insulin stimulation (Proc. Natl. Acad. Sci. USA, vol. 91, p 4854-4858 (1994)). The enhancing action by 4-hydroxyderricin on glucose uptake into mature adipocytes in which insulin resistance was induced by TNF-α was evaluated.
The induction of differentiation into mature adipocytes was carried out in the same manner as in the method described in Example 83, except that after preparation of the mature adipocytes, in order to induce insulin resistance in these mature adipocytes, mouse-derived TNF-α (manufactured by Cosmobio, 3410) was added to the medium so as to have a final concentration of 10 ng/mL or 20 ng/mL, and the adipocytes were cultured for additional 2 days. […]
The enhancing action on glucose uptake was evaluated in the same manner as in the method described in Example 83. For each of the cells prepared in item (1) of Example 95 mentioned above, there were set a group containing 4-hydroxyderricin at a final concentration of 30 μM, a group without addition of the sample as a negative control, and a group with treatment with insulin, and the radioactivity of each group was determined. […]

Assay [4] concerns KK-Ay mice. The experiment in a line: Glucose tolerance test, xanthoangelol. The assay is classed as in vivo. The settings on record: female KK-Ay mice, 200 mg/kg oral once a day. The method, then:
Amelioration effects for glucose tolerance of xanthoangelol were examined using female 12-week old KK-Ay mice. Xanthoangelol which was previously suspended or dissolved in an olive oil in a concentration of 4% (w/v) was forcibly orally administered to a group to be administered with xanthoangelol at 200 mg/kg once a day for consecutive days. An olive oil was administered to the mice in the control group at 5 mL/kg in the same manner. The mice were fasted over one night spanning the sixteenth day to the seventeenth day from administration, and the glucose tolerance test was carried out in the same manner as in Example 91.

For the molecule `COc1ccc(C(=O)/C=C/c2ccc(O)cc2)c(O)c1CC=C(C)C` [4-Hydroxyderricin, 4,2′-Dihydroxy-3′-prenyl-4′-methoxychalcone], the “2-deoxy-[1,2-3H(N)]-glucose uptake” value in assay [1] was “enhancement of 2-deoxy-[1,2-^3H(N)]-glucose uptake”. Also, the “amelioration effects for glucose tolerance (in words)” value in assay [2] (4-hydroxyderricin 200 mg/kg alone or combined use 100 mg/kg each) is given as “amelioration effects for glucose tolerance were found”. Further, the “Blood Glucose Level, Before Glucose Tolerance” value in assay [2] (200 mg/kg oral once a day, sixteenth day, fasted, 30 minutes before glucose 1 g/kg i.p.) came to 93 ± 2 mg/dL. For the same molecule, the “Blood Glucose Level, 30 Minutes After Tolerance” value in assay [2] (200 mg/kg oral once a day, sixteenth day, fasted, glucose 1 g/kg i.p.) was 224 ± 11 mg/dL. Further, the “enhancing action on glucose uptake, increase without TNF-α defined as 100%” value in assay [3] is listed as “around 80%”.

`CC(C)=CCC/C(C)=C/Cc1c(O)ccc(C(=O)/C=C/c2ccc(O)cc2)c1O` [Xanthoangelol, 4,2′,4′-Trihydroxy-3′-geranylchalcone]: the “action on the elevation in the blood glucose level after the glucose tolerance (in words)” value in assay [4] was “suppressive action”. The “Blood Glucose Level, Before Glucose Tolerance” value in assay [4] (seventeenth day, fasted) was found to be 106 ± 7 mg/dL. Besides, the “Blood Glucose Level, 30 Minutes After Tolerance” value in assay [4] (seventeenth day, fasted, glucose 1 g/kg i.p.) came to 234 ± 15 mg/dL.
